The conditions of assay [1]: cited from earlier work.
The subject of assay [2] is dog, hyperglycemia induced by infusing glucose. Put plainly: Portal infusion of deletion peptide in dog during induced hyperglycemia with fixed insulin levels (Example 5, second study). The note with it: basal insulin alone, glucose >200 mg/deciliter. It is filed as in vivo. The method, then:
In the second study, deletion peptide was infused portally at a rate of 1 μg/kg/min during hyperglycemia induced by infusing glucose through a peripheral catheter (to maintain glucose levels in excess of 200 mg/deciliter). Basal glucagon levels were fixed and insulin levels were fixed either at basal or four-fold basal levels.

Assay [3] relates to Rhesus monkeys. As to the kind of experiment: Induced hyperglycemia in Rhesus monkeys, plasma glucose over two hours (Example 6). Format: in vivo. As to the method: A study was conducted to determine the effects of deletion peptide on induced hyperglycemia in Rhesus monkeys. Blood samples were taken from normal female monkeys (in three experimental groups of three) five minutes before administration of an oral dose of 3.0 ml/kg of 0.5 g/ml glucose and intramuscular administration of either: (1) 0.5 ml/kg phosphate buffered saline (PBS), pH 7.4; (2) deletion peptide 0.1 ml/kg of 1.0 mg/ml solution in PBS; (3) deletion peptide as above combined with 0.5 ml/kg of 20 mU/ml insulin in PBS; or (4) insulin alone as above. Blood samples were then periodically withdrawn over two hours and analyzed for plasma glucose levels. Plasma glucose level data is set out in Table IV.

The subject of assay [4] is rats given an intraperitoneal glucose load. As to the kind of experiment: Plasma glucose in rats given an intraperitoneal glucose load, increasing insulin doses with and without 100 μg DP (Example 3). Format: in vivo. The note with it: for Plasma Glucose at 60 minutes: 1.0% BSA in saline, no DP, i.p. glucose load. The method, then:
(§1) A study was conducted to determine the effect on plasma glucose of deletion peptide, with and without insulin, in rats given an intraperitoneal glucose load. Groups of five male Sprague-Dawley rats were involved in this study. All weighed between 160 to 168 grams and were maintained on standard laboratory diet until 18 hours prior to the test procedures. Test groups of fasted rats received, in rapid succession, 1.0 ml of 0.75 M glucose, 10 mU of insulin in admixture with 1% bovine serum albumin (BSA) in normal saline (pH 7.4), and either 0, 25, 50 or 100 μg doses of deletion peptide. Control groups of rats received glucose and 1% BSA in saline with no insulin but with similarly varying levels of deletion peptide. Plasma glucose determinations were made on blood drawn one hour after administration of test substances and the results (means, ± standard errors) of these determinations are set out in Table I below.
A study was conducted under the same general procedures as Example 2 to determine the effect of increasing doses of insulin, with and without 100 μg of deletion peptide, on rats given an intraperitoneal glucose load. The results of plasma glucose determinations on blood drawn after 60 minutes are set out below in Table II.

For assay [5], the system named is Sprague-Dawley rats. As to the kind of experiment: Plasma glucose after glucose load, fixed insulin and DP doses, rats (Example 4). Format: in vivo. Particulars: Rat (normal), insulin 0.001 mU/10g. The method, then:
(§2) A study was conducted to ascertain the effects of fixed amounts of deletion peptide and insulin on various animal models, including rats and normal and genetically abnormal mice.
(§3) Animals in test groups of five each were employed in these procedures. Sprague-Dawley rats weighed approximately 200 grams; homozygous genetically abnormal mice (ob/ob and db/db) had weights in the range of 40 to 60 grams; and heterozygous normal mice (ob/+ and db/m) all weighed approximately 25 grams. Glucose was administered intraperitoneally at a dosage of 0.05 ml/10g of a solution containing 135 mg/ml glucose, except for one group of rats which were given an oral dose of glucose comprising 1 ml of 270 mg/ml glucose solution. Insulin was administered at a dose of 0.001 mU/10g and deletion peptide was simultaneously intraperitoneally administered at a dose of 5.0 μg/10g.
(§4) The results of plasma glucose determinations performed on blood drawn one hour after administration of test materials are set out in Table III, below.

For assay [6], the system named is mice ob/ob, ob/+, db/db, db/m. As to the kind of experiment: Plasma glucose after glucose load, fixed insulin and DP doses, normal and genetically abnormal mice (Example 4). Format: in vivo. Particulars: i.p. glucose, insulin 0.001 mU/10g. The method, then:
as §2, §3, §4

Assay [7] has as its system rats given an intraperitoneal glucose load. Put plainly: Plasma glucose in rats given an intraperitoneal glucose load, DP with and without insulin (Example 2). It is filed as in vivo, Sprague-Dawley rats. As to the method: as §1
In assay [8] the test system is normal rats. The note with it: cited from earlier work.
Assay [9] deals with fat cells. The note with it: compared with the 32-46 peptide findings; cited from earlier work.
Assay [10] relates to rabbits. The note with it: cited from earlier work.
For assay [11] the following is noted: after hGH administration; cited from earlier work.

For the substance “hGH positions 1 through 15: fragment duplicating the sequence of amino acid residues at hGH positions 1 through 15 (FPTIPLSRLFDNAML; UniProt P01241 27-41, looked up, fragment)”, in assay [1] (hGH amino terminal fragment), the “effect on glucose uptake” value was “insulin potentiating effect on glucose uptake”.
Regarding “peptide duplicating residues 176 through 191: peptide duplicating hGH residues 176 through 191 (FLRIVQCRSVEGSCGF; UniProt P01241 202-217, looked up, fragment)”, the glycemic effect entry in assay [1] (hGH carboxy terminal fragment) was “hyperglycemic effect”.
Turning to insulin, the hepatic glucose output entry in assay [2] was “only reduced hepatic glucose output”. Also, the Plasma Glucose in assay [3] (+5 min., oral glucose + i.m. insulin 0.5 ml/kg of 20 mU/ml) was determined as 79 ± 9 mg/dL; in assay [3] (+15 min., oral glucose + i.m. insulin), 72 ± 10 mg/dL; in [3] (+30 min., oral glucose + i.m. insulin) it was 85 ± 11 mg/dL; in assay [3] (+45 min., oral glucose + i.m. insulin), 88 ± 13 mg/dL; in [3] (+60 min., oral glucose + i.m. insulin), 109 ± 14 mg/dL; in assay [3] (+120 min., oral glucose + i.m. insulin), 108 ± 14 mg/dL. Besides, the Plasma Glucose in [3] (-5 min. (before administration), oral glucose + i.m. insulin group) stood at 71 ± 3 mg/dL. The “effect on plasma glucose” value in [4] (higher doses of insulin (20, 40 mU)) is “corresponding decreases in plasma glucose”. Moreover, the “Plasma Glucose at 60 minutes” value in assay [4] (insulin 7 mU per rat) was found to be 8.0 ± 0.3 mmol/L; in [4] (insulin 10 mU per rat), 8.1 ± 0.2 mmol/L; in assay [4] (insulin 20 mU per rat), 7.0 ± 0.1 mmol/L; in assay [4] (insulin 40 mU per rat), 5.2 ± 0.3 mmol/L; in [7] (10 mU insulin in 1.0% BSA in saline, 0 μg DP, fasted rats, i.p. glucose load) it was 8.1 ± 0.2 mmol/L. In addition, the “change in glycemia compared with the control group” value in assay [4] (insulin 7.0 mU/rat, whether or not deletion peptide was concurrently administered) was “no change in glycemia”. The “effect on plasma glucose concentration” value in assay [4] (insulin alone, 10 mU) is on record as “without effect on plasma glucose concentration”. The Plasma Glucose at 60 min in assay [5] (glucose administered orally) came out at 144 ± 12 mg/dL; in assay [5] (i.p. glucose), 121 ± 28 mg/dL; in [6] (Mouse db/db) it was 198 ± 31 mg/dL; in assay [6] (Mouse db/m (normal)) it was 102 ± 10 mg/dL; in assay [6] (Mouse ob/+ (normal)), 99.5 ± 6 mg/dL; in assay [6] (Mouse ob/ob) it was 167 ± 26 mg/dL. In addition, in assay [7] (low dose of insulin in BSA alone (10 mU, 0 DP)), the effect on glycemia result is recorded as “without effect on glycemia”.
On to “tetradecapeptide: synthetic tetradecapeptide copying hGH residues at positions 31 through 44 (FEEAYIPKEQKYSF; UniProt P01241 57-70, looked up, fragment)”, for which the “in vivo hypoglycemic effect” value in assay [8] and in [10] was “absence of any in vivo hypoglycemic effect” each time. Further, the “in vitro effects on fat cells” value in assay [9] is recorded as “substantially the same in vitro effects on fat cells”.
In the case of human growth hormone [hGH], in [11], the “blood levels of glucose” value was “initially raise and then lower blood levels of glucose”; the free fatty acids result is recorded as “lower free fatty acids within one hour of administration, followed by later increasing circulating fatty acids”.

Source of the values: patent US4558033A, “Potentiation of the effects of insulin by peptides” (Amgen, priority 1983, dated 1985).
